Source: ChEMBL document CHEMBL5346899, “PKM2/PDK1 dual-targeted shikonin derivatives restore the sensitivity of EGFR-mutated NSCLC cells to gefitinib by remodeling glucose metabolism” (Eur J Med Chem, 2023)
The source made the active and inactive calls. The rule behind the calls is not given here.

Columns and labels:
[1] = tested on: NCI-H1975; experiment: Induction of apoptosis in human NCI-H1975 cells assessed as regulation of cleaved caspase-8 expression by Western blot analysis; type: functional, cell-based
[2] = tested on: NCI-H1299; experiment: cells; type: functional, cell-based; details: Homo sapiens, NCI-H1299, 24 h
Description: Antiproliferative activity against human NCI-H1299 cells assessed as inhibition of cell growth incubated for 24 hrs by CCK-8 assay

[3] = tested on: HCC827; experiment: Induction of apoptosis in human HCC827 cells assessed as late apoptotic cells at 2 micromol/L incubated for 24 hrs by Annexin V-FITC/PI staining based analysis (reference value: 8.42%); type: functional; details: dose 2 µmol/L, at 2 µM
[4] = Toxicity in athymic nu/nu mouse xenografted with human NCI-H1975 cells assessed as reduction in body weight at 2.4 to 4.8 mg/kg, ip administered every 2 days for 11 days; type: organism-based; details: in vivo, 264 h, dose 2.4-4.8 mg/kg, time 11 day
[5] = tested on: NCI-H1975; experiment: Induction of apoptosis in human NCI-H1975 cells assessed as late apoptotic cells at 1 micromol/L incubated for 24 hrs by Annexin V-FITC/PI staining based analysis (reference value: 2.66%); type: functional; details: dose 1 µmol/L, at 1 µM
[6] = tested on: NCI-H1975; experiment: Induction of oxidative phosphorylation in human NCI-H1975 cells assessed as increase in ATP production by luminescence based assay; type: functional, cell-based
[7] = tested on: NCI-H1975; experiment: Antitumor activity against human NCI-H1975 cells xenografted in athymic nu/nu mouse assessed as induction of apoptosis in tumor at 2.4 to 4.8 mg/kg, ip administered every 2 days for 11 days by TUNEL assay; type: functional, organism-based; details: dose 2.4-4.8 mg/kg, time 11.0 day
[8] = tested on: NCI-H1975; experiment: Inhibition of glycolysis in human NCI-H1975 cells assessed as reduction in lactate production incubated for 1 hrs by colorimetric assay; type: functional, cell-based
[9] = tested on: NCI-H1975; experiment: Induction of apoptosis in human NCI-H1975 cells assessed as early apoptotic cells at 0.5 micromol/L incubated for 24 hrs by Annexin V-FITC/PI staining based analysis (reference value: 2.55%); type: functional; details: dose 0.5 µmol/L, at 0.5 µM
[10] = tested on: HCC827; experiment: Antiproliferative activity against siRNA mediated PKM2 knockdown human HCC827 cells assessed as inhibition of cell growth incubated for 24 hrs by CCK-8 assay; type: functional, cell-based; details: HCC827, 24 h
[11] = target: Pyruvate kinase PKM (Homo sapiens, UniProt P14618); experiment: Inhibition of PKM2 (unknown origin) nuclear translocation
[12] = tested on: NCI-H1975; experiment: Induction of apoptosis in human NCI-H1975 cells assessed as regulation of PARP expression by Western blot analysis; type: functional, cell-based
[13] = tested on: NCI-H1975; experiment: Induction of mitochondrial transmembrane potential dissipation in human NCI-H1975 cells assessed as cells with low mitochondrial transmembrane potential at 0.5 micromol/L by FL-1/FL-2 channel based fluorescence analysis (reference value: 2.13%); type: functional; details: dose 0.5 µmol/L; at 0.5 µM
[14] = tested on: NCI-H1299; experiment: Induction of apoptosis in human NCI-H1299 cells assessed as late apoptotic cells at 2 micromol/L incubated for 24 hrs by Annexin V-FITC/PI staining based analysis (reference value: 14.9%); type: functional; details: dose 2 µmol/L, at 2 µM
[15] = tested on: A549; experiment: Induction of apoptosis in human A549 cells assessed as late apoptotic cells at 1 micromol/L incubated for 24 hrs by Annexin V-FITC/PI staining based analysis (reference value: 3.18%); type: functional; details: dose 1 µmol/L, at 1 µM
[16] = tested on: HCC827; experiment: Induction of apoptosis in human HCC827 cells assessed as early apoptotic cells at 1 micromol/L incubated for 24 hrs by Annexin V-FITC/PI staining based analysis (reference value: 9.14%); type: functional; details: dose 1 µmol/L, at 1 µM
[17] = tested on: HCC827; experiment: Induction of apoptosis in human HCC827 cells assessed as early apoptotic cells at 2 micromol/L incubated for 24 hrs by Annexin V-FITC/PI staining based analysis (reference value: 9.14%); type: functional; details: dose 2 µmol/L, at 2 µM
[18] = tested on: NCI-H1975; experiment: Induction of apoptosis in human NCI-H1975 cells assessed as late apoptotic cells at 0.5 micromol/L incubated for 24 hrs by Annexin V-FITC/PI staining based analysis (reference value: 8.61%); type: functional; details: dose 0.5 µmol/L, at 0.5 µM
[19] = tested on: NCI-H1975; experiment: Induction of apoptosis in human NCI-H1975 cells with siRNA mediated […] knockdown assessed as late apoptotic cells at 1 micromol/L incubated for 24 hrs by Annexin V-FITC/PI staining based analysis (reference value: 6.25%); type: functional; details: dose 1 µmol/L, at 1 µM
[20] = tested on: NCI-H1975; experiment: Induction of apoptosis in human NCI-H1975 cells assessed as dead cells at 0.5 micromol/L incubated for 24 hrs by Annexin V-FITC/PI staining based analysis (reference value: 0.103%); type: functional; details: dose 0.5 µmol/L, at 0.5 µM
[21] = tested on: A549; experiment: Induction of intracellular ROS accumulation in human A549 cells; type: functional, cell-based
[22] = tested on: NCI-H1975; experiment: Induction of apoptosis in human NCI-H1975 cells assessed as regulation of Caspase-3 expression by Western blot analysis; type: functional, cell-based
[23] = Acute toxicity in ICR mouse assessed as reduction in animal survival rate at 2.4 to 38.4 mg/kg, ip administered once for 14 days and measured every day; type: organism-based; details: in vivo, 336 h, dose 2.4-38.4 mg/kg, time 14 day
[24] = tested on: NCI-H1975; experiment: Induction of mitochondrial transmembrane potential dissipation in human NCI-H1975 cells assessed as cells with high mitochondrial transmembrane potential at 0.5 micromol/L by FL-1/FL-2 channel based fluorescence analysis (reference value: 97.4%); type: functional; details: dose 0.5 µmol/L; at 0.5 µM
[25] = tested on: HCC827; experiment: Antiproliferative activity against human HCC827 cells transfected with siRNA assessed as inhibition of cell growth incubated for 24 hrs by CCK-8 assay; type: functional, cell-based; details: HCC827, 24 h
[26] = tested on: A549; experiment: Induction of apoptosis in human A549 cells assessed as late apoptotic cells at 2 micromol/L incubated for 24 hrs by Annexin V-FITC/PI staining based analysis (reference value: 3.18%); type: functional; details: dose 2 µmol/L, at 2 µM
[27] = Acute toxicity in ICR mouse assessed as damage in vital organs at 2.4 to 38.4 mg/kg, ip measured after 15 days by H and E staining based analysis; type: organism-based; details: in vivo, 360 h, dose 2.4-38.4 mg/kg, time 15 day
[28] = tested on: NCI-H1975; experiment: Antiproliferative activity against siRNA mediated PKM2 knockdown human NCI-H1975 cells assessed as inhibition of cell growth incubated for 24 hrs by CCK-8 assay; type: functional, cell-based; details: NCI-H1975, 24 h
[29] = tested on: NCI-H1299; experiment: Induction of intracellular ROS accumulation in human NCI-H1299 cells; type: functional, cell-based
[30] = tested on: NCI-H1975; experiment: Inhibition of NADPH production in human NCI-H1975 cells incubated for 2 hrs by NADP+/NADPH assay; type: functional, cell-based
[31] = tested on: NCI-H1975; experiment: Inhibition of glycolysis in human NCI-H1975 cells assessed as reduction in glucose consumption incubated for 24 hrs by colorimetric assay; type: functional, cell-based
[32] = tested on: NCI-H1975; experiment: Induction of apoptosis in human NCI-H1975 cells assessed as dead cells at 0.5 micromol/L incubated for 24 hrs in presence of gefitinib by Annexin V-FITC/PI staining based analysis (reference value: 0.103%); type: functional; details: dose 0.5 µmol/L, at 0.5 µM
[33] = tested on: A549; experiment: Induction of apoptosis in human A549 cells assessed as early apoptotic cells at 1 micromol/L incubated for 24 hrs by Annexin V-FITC/PI staining based analysis (reference value: […]%); type: functional; details: dose 1 µmol/L
[34] = tested on: NCI-H1975; experiment: Induction of apoptosis in human NCI-H1975 cells assessed as early apoptotic cells at 0.5 micromol/L incubated for 24 hrs in presence of gefitinib by Annexin V-FITC/PI staining based analysis (reference value: 2.55%); type: functional; details: dose 0.5 µmol/L, at 0.5 µM

Sequence of Pyruvate kinase PKM (P14618 2-531 limits assumed): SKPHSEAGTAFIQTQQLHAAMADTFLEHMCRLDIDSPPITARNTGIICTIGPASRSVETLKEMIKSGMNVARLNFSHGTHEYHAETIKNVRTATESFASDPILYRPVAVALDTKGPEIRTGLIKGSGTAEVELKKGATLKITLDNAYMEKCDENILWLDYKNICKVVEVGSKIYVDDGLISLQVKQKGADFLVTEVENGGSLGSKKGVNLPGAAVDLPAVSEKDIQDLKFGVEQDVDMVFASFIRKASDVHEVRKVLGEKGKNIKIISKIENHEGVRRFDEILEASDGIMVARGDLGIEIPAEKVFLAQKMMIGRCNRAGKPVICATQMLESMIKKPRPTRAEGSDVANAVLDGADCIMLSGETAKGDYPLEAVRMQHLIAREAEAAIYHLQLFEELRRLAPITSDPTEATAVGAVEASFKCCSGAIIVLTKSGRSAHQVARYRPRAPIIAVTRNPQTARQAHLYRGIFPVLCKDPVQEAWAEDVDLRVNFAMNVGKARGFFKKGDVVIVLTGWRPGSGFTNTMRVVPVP

COC(=O)[C@H](CS[C@H](CC=C(C)C)C1=CC(=O)c2c(O)ccc(O)c2C1=O)NC(=O)CCCC[C@@H]1CCSC(c2ccccc2C)S1 (some centres undefined)
Activity [1]: Active | IC50 [2]: 5.48 µM | Activity [3]: 41.1% | Activity [4]: Non-Toxic | Activity [5]: 23.6% | Activity [6]: Active | Activity [7]: Active | inhibition [8]: Active | Activity [9]: 1.54% | IC50 [10]: 13 µM | inhibition [11]: Active | Activity [12]: Active | Activity [13]: 11.8% | Activity [14]: 24.5% | Activity [15]: 5.33% | Activity [16]: 16.5% | Activity [17]: 29.4% | Activity [18]: 11.2% | Activity [19]: 4.95% | Activity [20]: 0% | Activity [21]: Active | Activity [22]: Active | Activity [23]: Non-Toxic | Activity [24]: 88.1% | IC50 [25]: 6 µM | Activity [26]: 6.46% | Activity [27]: Non-Toxic | IC50 [28]: 8 µM | Activity [29]: Active | inhibition [30]: Active | inhibition [31]: Active | Activity [32]: 0.011% | Activity [33]: 8.74% | Activity [34]: 17.6%
